What was measured:
[1] = test system: human keratinocyte cells (HaCaT line) and fibroblasts
Procedure: For each of the substances above, the maximum non-cytotoxic doses were determined, corresponding to cell viability ≥90% (hereafter “NCD”). Cell viability was evaluated by a neutral red test (NR) on human keratinocyte cells (HaCaT line) and on fibroblasts described hereafter after contact for 48 h. The substances were poured into the culture medium DMEM+10% FCS.

procollagen I = assay: Procollagen I [PIP] ELISA on UV-A irradiated fibroblasts (DPC); assay type: cell-based, human
Procedure: (§1) 3.2.1) The principle of the assay is based on the evaluation of 2 parameters—neosynthesis of collagen I and production of MMP-1—on human fibroblasts [NHDF] cultivated in the absence or in the presence of the assay element, and stimulated by UV-A.
(§2) The level of procollagen I is quantified by assaying [PIP] (procollagen of the I peptide type) in incubation media by means of an ELISA assay. The measurement of the MMP-1 level is conducted on the incubation media by means of an ELISA assay.
(§3) Fibroblasts [NHDF] are detached from their support by trypsinization. After counting, the cell suspension is sown in 24-well plates in an amount of 1.10^5 cells/well, in a [D-MEM+10% FCS] medium.
(§4) After 24 h of incubation, the culture medium is removed and replaced with fresh medium supplemented with 1% of FCS, without any ascorbic acid and containing the product(s) to be investigated. The cells are replaced in the oven and incubated for 24 h, in an air-CO2 atmosphere (95%/5%).
(§5) After incubation with test solutions, the cells are rinsed with HBSS and then exposed to UV-A (Philips TL-K 40 W ACTINIC BL REFLECTOR tubes) through HBSS. The UV-A irradiation is of about 10 J/cm^2 for 1 h. After irradiation, the HBSS is replaced with fresh medium containing the assay element.
(§6) The cells are replaced at 37° C. and incubated for 24 h. At the end of the assay, the incubation media of the cultures are sampled and frozen at −20° C. while awaiting the assaying of procollagen I and of MMP-1.
(§7) In parallel, the cell mats are rinsed with HBSS and treated for an assay of cell proteins (BCA protein assay). A (0.1N) NaOH solution is added into each well. After incubation, the extracts are sampled and transferred into a 96-well plate. 200 μl of BCA reagent are added into each well. After incubation, the absorbance (optical density) is measured at 570 nm with a microplate reader.
The assay of the procollagen I in the samples is carried out with an ELISA assay (Procollagen Type I C-Peptide EIA Kit from R&D Systems® laboratories, France) for detecting and quantifying by fluorescence the C-terminal peptide of human procollagen I.
(§8) In both cases, the quantification of the fluorescence is accomplished in the culture supernatants, according to the instructions provided by the R&D Systems® laboratories, France, the absorbance being measured at 450 nm.
(§9) The assay was carried out on [NHDF] (F06.2H7 strain) fibroblasts cultivated in a [DMEM+1% FCS] medium, in the absence of sodium ascorbate.
(§10) The levels of procollagen I and of MMP-1 were measured in the supernatants of the cultures after treatment and irradiation of the cells.
(§11) The NHDF cells were treated with the assay complexes CAAL-2, CAAL-3 and CAAL-4, before (24 h) and after (24 h) UVA irradiation.
(§12) The concentrations of procollagen I [PIP] c-terminal peptide and of metalloproteinase-1 [MMP-1] in the different samples (ng/ml) were corrected according to the protein concentrations of the corresponding wells.
DPC=% of increase in collagen after treatment of the NHDF fibroblast cells with UV in the presence of the complex according to the invention relatively to a control having been subject to a same UV treatment in the absence of the assay complex according to the present invention or other; and
(§13) Assay conditions: • 1. Treating the cells, for 24 h, with the assay elements, before irradiation of the cells, • 2. Exposure of the cells to UV-As, in the absence of the assay elements, • 3. Incubation of the irradiated cells for 24 h, in the presence of the assay elements, • 4. Quantification of the levels of pro-collagen I ([PIP] assay) and of MMP-1 in the incubation media.
(§14) Results: The [PIP] and [MMP] values recorded at the control and treated cultures were corrected according to the average level of cell proteins (μg/well).
Synthesis of procollagen I: assay of the [PIP] (procollagen of the type I peptide) assay in the incubation media.

HaCaT keratinocytes = assay: DCFH assay: UV-B-induced intracellular ROS (epidermal anti-oxidant potential, AOE); assay type: cell-based, human; conditions: for AOE, % reduction of [ROSUV]: vs (+) UV control
Source text: 3.1.1) The principle of the assay is based on the measurement of the intracellular oxidation level by means of the probe: 2′,7′-dichloro-dihydrofluorescein diacetate (DCFH-DA). Non-fluorescent DCFH-DA penetrates by passive diffusion into the cells. After cleavage of the acetate groups by the esterases, DCFH accumulates at the cytosol. The oxidation of DCFH by the reactive oxygen species (ROS: “Reactive Oxidative Species”) leads to the formation of a fluorescent compound. The DCF fluorescence intensity gives the possibility of evaluating the oxidation level of the cells subject to an oxidative stress.
More specifically, the measurement of the fluorescence intensities of DCF gives the possibility of evaluating the oxidation level of the cells subject to an oxidative stress. The DCFH assay detects a large range of ROSes: hydroxyl peroxyl and other ROSes (Fluorescence probes used for detection of reactive oxygen species, A. Gomes et al., J. Biochem. Biophys. Methods, 65:45-80; 2005).
HaCaT keratinocytes cultivated in a mono-layer are detached by trypsinization. The cell suspension is sown in 24-well plates.
2 plates are sown in parallel: 1 plate [DCFH] (measurement of DCFH fluorescence) and 1 plate [Prot] (measurement of cell proteins).
The plates [DCFH] and [Prot] are treated in parallel, in an identical way, according to the following experimental procedure.
72 hours after sowing, the culture medium is removed and replaced with fresh medium containing the assay element. The cells are replaced at 37° C. and incubated for 24 hours, in an air-CO2 atmosphere (95%/5%). After incubation with the assay element, the cells are rinsed with HBSS (a so called Hanks solution) and then exposed to UV-B (Philips TL-K 40 W ACTINIC BL REFLECTOR tubes) through the HBSS. The cells were treated with the various assayed complexes before (24 h) and after (24 h) irradiation with UV-B for about 30 minutes at 20 mJ/cm^2.
After irradiation, the HBSS is replaced with fresh medium containing the assay element. The cells are replaced at 37° C. for 24 h in an air-CO2 atmosphere (95%/5%). At the end of the assay, the [DCFH] and [Prot] plates are treated, in the following way:
The [DCFH] plates are emptied and rinsed with PBS. The cells are then incubated at 37° C., in the presence of a DCFH-DA solution. After incorporating the probe, the cells are rinsed with PBS. An extraction buffer (Triton X-100 1%) is added into each well. After 45 mins of incubation, the lyzates are sampled, transferred into 96-well plates. The fluorescence intensities (λExc: 485 nm, λEm: 535 nm) are expressed in relative fluorescence units (RFU).
A dosage of the proteins (BCA protein assay) is carried out in parallel in order to correct the [DCFH] values (RFU/well) according to the cell protein level (pg/well) in order to do without a variation in the number of cells related to an effect of the assay element on cell growth.
The assay was carried out on HaCaT keratinocytes (HaCaTp91 strain) cultivated in a [DMEM+1% FCS] medium. The intracellular oxidation level was measured after treatment and irradiation of the cells.
The intracellular oxidation level (F.R.U/well: relative fluorescence unit) recorded at the control and treated cultures was corrected according to the average cell protein level (μg/well). The values [DCFH] are expressed in arbitrary units (from the optical densities): [DCFH]=(F.R.U/μg prot.).
Assay conditions: • 1. Pretreating the cells for 24 h, with the assay elements, before irradiation of the cells, • 2. Exposure of the cells to UV-B (20 mJ/cm^2), in the absence of the assay elements, • 3. Incubation of the irradiated cells for 24 h, in the presence of the assay elements, • 4. Quantification of the intracellular oxidation level (ROS) by measuring the fluorescence of DCFH.
The intracellular oxidation level (RFU/well) recorded at the control and treated cultures were corrected according to the average level of cell proteins (μg/well). […]

[2] = test system: HaCaT keratinocytes and NHDF fibroblasts; assay: Skin anti-ageing potential index AAC = AOE + 1/2 DPC + 1/2 DPM; design: species or system human; conditions: Example 1; AOE+½DPC+½DPM
Procedure: An anti-age activity index designated as “AAC” was determined according to the present invention, which is a quantitative parameter of the anti-ageing skin potential of a test element taking into account a protective effect at the epidermis by integrating an epidermal anti-oxidant effect score and a protective effect at the dermis by integrating a dermo-protective effect score towards the synthesis of collagen, a main marker of the dermal extracellular matrix (ECM) and/or towards the degradation of metalloproteinase-1 (MMP-1) which is a collagenase enzyme produced by the fibroblasts of the dermis degrading the dermal extracellular matrix (ECM). Still more specifically, a capability is sought for opposing the reduction of collagen synthesis following UV stress and opposing the increase in the production of metalloproteinase-1 for ensuring dermal homeostasis.
More specifically, according to the present invention, an AAC potential is defined as follows:
[AOE]: % of epidermal anti-oxidant potential as defined hereafter.
[DPC.]: % of dermo-protective collagen potential as defined hereafter.
[DPM]: % of dermo-protective MMP1 potential as defined hereafter.
The skin anti-ageing potential ([AAC]) was calculated from the experimental data according to:
[A.A.C]=[AOE]+½.[DPC]+½.[DPM]

MMP-1 = MMP-1 ELISA on UV-A irradiated fibroblasts (DPM); assay type: cell-based, human; conditions: for DPM, % reduction of MMP-1 / [MMP-1]: VE 1 mM; for [MMP-1]: (+) UV-A, corrected for cell proteins
Procedure: as §1, §2, §3, §4, §5, §6, §7
The MMP-1 activity is measured with an ELISA assay (Human Active MMP-1 from R&D Systems® laboratories, FRANCE) for detecting and quantifying by fluorescence the MMP-1 activity.
as §8, §9, §10, §11, §12
DPM=% of reduction in metalloproteinase-1 after treatment of NHDF fibroblasts with UVs in the presence of the complex according to the invention relatively to a control having been subject to a same UV treatment in the absence of an assay complex according to the present invention or other.
as §13, §14
MMP-1 production: assay of MMP-1 in the incubation media by an Elisa assay.

[3] = Example 1, NHDF, vs (+) UV control, ASC 50 μg/ml
[4] = Example 1, relative to (+) UV control 2 = 100%
[5] = Example 2, NHDF, vs (+) UV control
[6] = Example 1, NHDF, vs (+) UV control

sodium hyaluronate [SODIUM H[…]]
NCD (%) by weight (maximum non-cytotoxic dose) [1]: 0.2% by weight

O=C1O[C@H]([C@@H](O)CO)C([O-])=C1O.[Na+] [ASC, sodium ascorbate]
DPC, % increase in collagen (procollagen I; [3]): 143% | [PIP] (%) (procollagen I; [4]): 243% | [PIP] % of (+) UV control (procollagen I; Example 2): 243% | [PIP] (procollagen I; Example 2, NHDF, (+) UV-A, corrected for cell proteins, ASC 50 μg/ml): 3.79 +/− 0.04 | DPC dermo-protective collagen potential (procollagen I; [5]): capable of restoring neosynthesis of collagen I depressed by UVs | AOE, % reduction of [ROSUV] (HaCaT keratinocytes; Example 1, VE 1 mM): 0% | AAC skin anti-ageing potential [2]: 71.5% | DPM, % reduction of MMP-1 (MMP-1; [6]): 0%

Cc1c(C)c2c(c(C)c1O)CC[C@@](C)(CCC[C@H](C)CCC[C@H](C)CCCC(C)C)O2 [VE, α-tocopherol]
DPC, % increase in collagen (procollagen I; [3]): 0% | DCFH ASSAY intracellular oxidation level [DCFH] (HaCaT keratinocytes; Example 1, HaCaT, (+) UV-B 20 mJ/cm2, treated 24 h before and 24 h after, complexes at Table I conc., VE 1 mM, average +/- SD, n=3): 35.72 +/− 2.66 F.R.U/μg prot. | UV-induced ROS (HaCaT keratinocytes; Example 1, [DCFH] minus non-irradiated control 1): 22.92 F.R.U/μg prot. | UV-induced ROS (%) (HaCaT keratinocytes; [4]): 19% | AOE, % reduction of [ROSUV] (HaCaT keratinocytes; Example 1, VE 1 mM): 81% | UV-induced ROS (DCFH minus non-irradiated control) (HaCaT keratinocytes; Example 2): 16.38 RFU/μg prot. | DCFH [ROS] intracellular oxidation level (HaCaT keratinocytes; Example 2, HaCaT, (+) UV-B 20 mJ/cm2, DMEM+FCS(1%), average +/- SD, n=3): 28.03 +/− 1.12 RFU/μg prot. | UV-induced ROS (%) (HaCaT keratinocytes; Example 2, relative to (+) UV control = 100%): 12% | AOE anti-oxidant epidermal potential, % reduction of [ROSUV] (HaCaT keratinocytes; Example 2, vitamin E 1 mM): 88% | AAC skin anti-ageing potential [2]: 96.5% | [MMP-1] (MMP-1; Example 1, NHDF, average +/- SD, n=3): 0.172+/— ng/ml | DPM, % reduction of MMP-1 (MMP-1; [6]): 31% | [MMP-1] (%) (MMP-1; [4]): 69% | [MMP-1] % of (+) UV control (MMP-1; Example 2): 62% | [MMP-1] (MMP-1; Example 2, NHDF): 0.198 +/− 0.006 | DPM dermo-protective MMP1 potential, % reduction of MMP-1 (MMP-1; [5]): 38%
